Measurements reported in paper PMC11589570, “Critical assessment of LC3/GABARAP ligands used for degrader development and ligandability of LC3/GABARAP binding pockets” (Nature Communications, 2024).
Values joined by “and” are separate entries in the source; they are usually repeats but may differ in a detail not shown here. Equal values may be shown once. Read-outs that look alike come from different tables or passages of the source.

Tests used:
GABARAPL2 = GABARAPL2 (Homo sapiens, UniProt P60520); details: for CSP: GABARAPL2:ligand molar ratio 1:2; for 3D Mapping code: molar ratio 1:2
U2OS cells = test: Cell growth assay (IncuCyte confluence over 72 h); format: cell-based; parameters: key to U2OS cell growth: % of well area covered by cells (confluence)
Summary of the method: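 U2OS cells were grown in DMEM with 10% FBS for 24 h before treatment. Confluence was then tracked by IncuCyte phase imaging over 72 h and expressed as % of well area covered by cells. Each point is the average of three wells.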

LC3A = LC3A (Homo sapiens, UniProt Q9H492); test: Isothermal titration calorimetry (ITC); format: binding; details: LC3A

GABARAPL2, sequence (P60520 whole entry): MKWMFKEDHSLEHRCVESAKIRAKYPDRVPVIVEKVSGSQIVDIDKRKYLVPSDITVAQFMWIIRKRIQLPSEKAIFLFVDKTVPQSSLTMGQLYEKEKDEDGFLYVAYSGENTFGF

O=C1Nc2ccc(I)cc2C1=Cc1cc(Br)c(O)c(Br)c1 [compound 4]
CSP (GABARAPL2; residue L70): 0.006 ppm | CSP (GABARAPL2; residue L78): 0.006 ppm | CSP (GABARAPL2; residue L105): 0.060 ppm | 3D Mapping code (GABARAPL2; residue L105): Orange | CSP (GABARAPL2; residue M1): 0.010 ppm | CSP (GABARAPL2; residue M61): 0.015 ppm | CSP (GABARAPL2; residue N113): 0.00264 ppm | CSP (GABARAPL2; residue P26, estimated): 0.050 ppm | 3D Mapping code (GABARAPL2; residue P26): Light green | CSP (GABARAPL2; residue P30, estimated): 0.110 ppm | 3D Mapping code (GABARAPL2; residue P30): Blue | CSP (GABARAPL2; residue P52, estimated): 0.070 ppm | 3D Mapping code (GABARAPL2; residue P52): Blue | CSP (GABARAPL2; residue P71, estimated): 0.010 ppm | CSP (GABARAPL2; residue Q40): 0.017 ppm | CSP (GABARAPL2; residue Q59): 0.016 ppm | CSP (GABARAPL2; residue Q69): 0.020 ppm | CSP (GABARAPL2; residue R14): 0.091 ppm | 3D Mapping code (GABARAPL2; residue R14): Orange | CSP (GABARAPL2; residue R22): 0.083 ppm | 3D Mapping code (GABARAPL2; residue R22): Orange | CSP (GABARAPL2; residue R28): 0.064 ppm | 3D Mapping code (GABARAPL2; residue R28): Orange | CSP (GABARAPL2; residue R47, estimated): 0.100 ppm | 3D Mapping code (GABARAPL2; residue R47): Blue | CSP (GABARAPL2; residue R65): 0.008 ppm | CSP (GABARAPL2; residue R67): 0.00158 ppm | CSP (GABARAPL2; residue S10): 0.019 ppm | CSP (GABARAPL2; residue S18): 0.021 ppm | CSP (GABARAPL2; residue S37): 0.030 ppm | 3D Mapping code (GABARAPL2; residue S37): Light green | CSP (GABARAPL2; residue S39): 0.017 ppm | CSP (GABARAPL2; residue S53): 0.076 ppm | 3D Mapping code (GABARAPL2; residue S53): Orange | CSP (GABARAPL2; residue S72): 0.004 ppm | CSP (GABARAPL2; residue S110): 0.010 ppm | CSP (GABARAPL2; residue T56): 0.008 ppm | CSP (GABARAPL2; residue T114): 0.00144 ppm | CSP (GABARAPL2; residue V16): 0.051 ppm | 3D Mapping code (GABARAPL2; residue V16): Light green | CSP (GABARAPL2; residue V29): 0.102 ppm | 3D Mapping code (GABARAPL2; residue V29): Blue | CSP (GABARAPL2; residue V31): 0.128 ppm | 3D Mapping code (GABARAPL2; residue V31): Blue | CSP (GABARAPL2; residue V33): 0.064 ppm | 3D Mapping code (GABARAPL2; residue V33): Orange | CSP (GABARAPL2; residue V36): 0.024 ppm | CSP (GABARAPL2; residue V42): 0.00232 ppm | CSP (GABARAPL2; residue V51): 0.077 ppm | 3D Mapping code (GABARAPL2; residue V51): Blue | CSP (GABARAPL2; residue V57): 0.024 ppm | CSP (GABARAPL2; residue V80): 0.028 ppm | 3D Mapping code (GABARAPL2; residue V80): Light green | CSP (GABARAPL2; residue V107): 0.039 ppm | 3D Mapping code (GABARAPL2; residue V107): Light green | CSP (GABARAPL2; residue W3): 0.022 ppm | CSP (GABARAPL2; residue W62): 0.016 ppm | CSP (GABARAPL2; residue Y25): 0.085 ppm | 3D Mapping code (GABARAPL2; residue Y25): Orange | CSP (GABARAPL2; residue Y49): 0.148 ppm | 3D Mapping code (GABARAPL2; residue Y49): Blue | CSP (GABARAPL2; residue Y106): 0.097 ppm | 3D Mapping code (GABARAPL2; residue Y106): Orange | CSP (GABARAPL2; residue Y109): 0.012 ppm | U2OS cell growth (U2OS cells; 100 nM, time 0 h, listed as 10O5): 16.9992 and 15.7304 and 22.471 | U2OS cell growth (U2OS cells; 100 nM, time 2 h, listed as 10O5): 30.0536 and 23.3693 and 30.9556 | U2OS cell growth (U2OS cells; 100 nM, time 4 h, listed as 10O5): 26.8783 and 18.0548 and 26.389 | U2OS cell growth (U2OS cells; 100 nM, time 6 h, listed as 10O5): 32.427 and 24.5344 and 29.4691 | U2OS cell growth (U2OS cells; 500 nM, time 0 h, listed as 10O5): 22.1626 and 25.7214 and 24.1436 | U2OS cell growth (U2OS cells; 500 nM, time 2 h, listed as 10O5): 30.4879 and 29.4429 and 31.5602 | U2OS cell growth (U2OS cells; 500 nM, time 4 h, listed as 10O5): 27.0048 and 26.6361 and 29.202 | U2OS cell growth (U2OS cells; 500 nM, time 6 h, listed as 10O5): 26.7875 and 33.8054 and 33.8287 | U2OS cell growth (U2OS cells; 500 nM, time 8 h): 33.7413 | U2OS cell growth (U2OS cells; 500 nM, time 10 h): 39.0222 | U2OS cell growth (U2OS cells; 1 uM, time 0 h, listed as 10O5): 28.8978 and 24.3384 and 24.2638 | U2OS cell growth (U2OS cells; 1 uM, time 2 h, listed as 10O5): 33.9341 and 25.1214 and 23.3142 | U2OS cell growth (U2OS cells; 1 uM, time 4 h, listed as 10O5): 34.8975 and 25.1189 and 23.4121 | U2OS cell growth (U2OS cells; 1 uM, time 6 h, listed as 10O5): 36.2035 and 30.6761 and 30.4629 | U2OS cell growth (U2OS cells; 1 uM, time 8 h, listed as 10O5): 37.0589 and 28.0551 and 29.5538 | U2OS cell growth (U2OS cells; 1 uM, time 10 h, listed as 10O5): 40.6527 and 32.3336 and 34.2928 | U2OS cell growth (U2OS cells; 1 uM, time 12 h, listed as 10O5): 39.0418 | U2OS cell growth (U2OS cells; 3 uM, time 0 h, listed as 10O5): 28.8395 and 29.1487 and 34.5356 | U2OS cell growth (U2OS cells; 3 uM, time 2 h, listed as 10O5): 33.8786 and 32.6567 and 36.3335 | U2OS cell growth (U2OS cells; 3 uM, time 4 h, listed as 10O5): 28.2335 and 26.3394 and 40.569 | U2OS cell growth (U2OS cells; 3 uM, time 6 h, listed as 10O5): 37.1398 and 33.8156 and 39.1483 | U2OS cell growth (U2OS cells; 3 uM, time 8 h, listed as 10O5): 34.9068 and 36.3207 and 39.5562 | U2OS cell growth (U2OS cells; 3 uM, time 10 h, listed as 10O5): 41.312 and 42.3386 and 42.5694 | U2OS cell growth (U2OS cells; 3 uM, time 12 h, listed as 10O5): 40.1427 | U2OS cell growth (U2OS cells; 5 uM, time 0 h, listed as 10O5): 31.0558 and 26.3625 and 29.5321 | U2OS cell growth (U2OS cells; 5 uM, time 2 h, listed as 10O5): 36.0354 and 28.3396 and 34.1005 | U2OS cell growth (U2OS cells; 5 uM, time 4 h, listed as 10O5): 37.417 and 32.4374 and 40.4577 | U2OS cell growth (U2OS cells; 5 uM, time 6 h, listed as 10O5): 38.4528 and 33.2156 and 39.1806 | U2OS cell growth (U2OS cells; 5 uM, time 8 h, listed as 10O5): 37.3748 and 33.0274 and 39.2246 | U2OS cell growth (U2OS cells; 5 uM, time 10 h, listed as 10O5): 41.1433 and 35.6497 and 45.4152 | U2OS cell growth (U2OS cells; 10 uM, time 0 h, listed as 10O5): 20.3118 and 28.5412 and 26.4263 | U2OS cell growth (U2OS cells; 10 uM, time 2 h, listed as 10O5): 23.006 and 27.9929 and 32.8968 | U2OS cell growth (U2OS cells; 10 uM, time 4 h, listed as 10O5): 30.6648 and 35.9437 and 41.1141 | U2OS cell growth (U2OS cells; 10 uM, time 6 h, listed as 10O5): 29.7401 and 38.8973 and 43.1309 | U2OS cell growth (U2OS cells; 10 uM, time 8 h, listed as 10O5): 28.0658 and 36.5966 and 41.861 | U2OS cell growth (U2OS cells; 10 uM, time 10 h, listed as 10O5): 30.9876 and 40.5217 and 49.4843 | outcome of ITC titration (LC3A): low solubility in the buffer system | outcome of ITC titration (LC3A; listed as 10O5): induced protein precipitation
